{"source": "patent EP3939578A1", "about": "“COMPOUNDS FOR TREATMENT OR PREVENTION OF AN INFECTION RESULTING FROM A CORONAVIRUS AND/OR A CORONAVIRUS-INDUCED DISEASE” (Novaremed Ltd., priority 2020, dated 2022)", "key": {"[1]": {"experiment": "Gravimetric Vapour Sorption (GVS)", "format": "physicochemical", "procedure": "Approximately 10 mg of sample was placed into a wire-mesh vapour sorption balance pan and loaded into an 'IgaSorp' vapour sorption balance (Hiden Analytical Instruments). The sample was then dried by maintaining a 0% humidity environment until no further weight change was recorded. Subsequently, the sample was subjected to a ramping profile from 0 - 90 % RH at 10 % RH increments, maintaining the sample at each step until equilibration had been attained (99% step completion). Upon reaching equilibration, the % RH within the apparatus was ramped to the next step and the equilibration procedure repeated. After completion of the sorption cycle, the sample was then dried using the same procedure. The weight change during the sorption/desorption cycles were then monitored, allowing for the hygroscopic nature of the sample to be determined."}, "[2]": {"experiment": "Dog bioavailability tests of polymorphs 1 and 2", "format": "in vivo", "conditions": "compared with polymorph 1", "excerpt": "The bioavailability of polymorphs 1 and 2 has also been tested and made available in PCT/EP2020/051528 as Example 3 and is incorporated herein by reference."}}, "note": "Entries after “also recorded” stand apart in the source; their conditions may differ.", "data": [{"smiles": "C[C@H](O)COC[C@H](Cc1ccc(O)cc1)NC(=O)CCc1ccccc1", "note": "[polymorph 1, (S,S)-2-N(3-O-(propan-2-ol)-1-propyl-4-hydroxybenzene)-3-phenylpropylamide]", "values": [{"measurement": "rapid moisture uptake between 70% and 80% RH", "setting": "[1]; GVS, between 70% and 80% RH, hysteresis between adsorption and desorption cycles", "result": 5.6, "unit": "%"}, {"measurement": "weight increase in second adsorption cycle", "setting": "[1]; GVS, second adsorption cycle, at an RH of 40%, different form arising after the first cycle", "result": "> 2", "unit": "%"}, {"measurement": "weight increase to 70% RH", "setting": "[1]; GVS, to 70% RH", "result": "~1.3", "unit": "%"}]}, {"smiles": "C[C@H](O)COC[C@H](Cc1ccc(O)cc1)NC(=O)CCc1ccccc1", "note": "[polymorph 2, (S,S)-2-N(3-O-(propan-2-ol)-1-propyl-4-hydroxybenzene)-3-phenylpropylamide]", "values": [{"measurement": "overall weight loss by the end of the two adsorption/desorption cycles", "setting": "[1]; GVS, after two adsorption/desorption cycles, sharp weight loss at 90% RH", "result": "~1", "unit": "%"}, {"measurement": "weight gain to 80% RH", "setting": "[1]; GVS, to 80% RH", "result": 0.6, "unit": "%"}, {"measurement": "change of polymorphic form (XRPD) after GVS", "setting": "[1]; XRPD after two adsorption/desorption cycles", "result": "no change of polymorphic form"}, {"measurement": "bioavailability", "setting": "[2]", "result": "higher than for polymorph 1; also recorded: better bioavailability as compared to polymorph 1; also recorded: exceptionally high"}]}]}
